# Results published in patent US20250032581A1, “COMPOSITIONS AND ARTICLES COMPRISING AN ADNF POLYPEPTIDE” (RAMOT AT TEL-AVIV UNIVERSITY LTD., priority 2021, published 2025).
# Tests used:
# Tyr-GFP mouse model = test: Dendritic spine quantitation in Tyr-GFP mice; type: in vivo
# Description: Spine quantitation—For determination of dendritic spine morphology, the Tyr-GFP mouse model was used and generated as described(12). 1.5-2-month-old Tyr-GFP-mice were treated for 9 consecutive days with either intraperitoneal NAP injection (0.4 μg/0.1 ml saline) or with 0.1 ml saline. On day 9, mice were perfused, and brains were subjected to immunohistochemistry and imaging (12).
# Tyr mice = test: Fecal microbiome real-time PCR; type: in vivo, mouse; settings: WT mice
# Description: Microbiome—Fecal samples were collected from 12.2±0.19-week-old mice. Samples were prepared and analyzed as previously described (57). Microbiome data was analyzed after applying the logarithmic transformation.
# [1] = test system: Tau-MT interaction in differentiated N1E-115 cells; test: Fluorescence recovery after photobleaching (FRAP) of mCherry-Tau; type: cell-based, mouse; settings: for Tau-MT interaction (immobile mCherry-Tau fraction): 4 hrs
# Description: Cell culture—Mouse neuroblastoma NIE-115 cells were maintained in Dulbecco's modified Eagle's medium, 10% fetal bovine serum, 2 mM glutamine and 100 U ml-1 penicillin, 100 mg ml-1 streptomycin (Biological Industries, Beit Haemek, Israel). The cells were incubated in 9 5% air/5% CO2 in a humidified incubator at 37° C.
# Cell differentiation and co-transfection of overexpression plasmids—Cultured NIE-115 cells were plated on 35 mm dishes (81156, 60 p-Dish, Ibidi, Martinsried, Germany) at a concentration of 1.25×10^4 cells per dish and then were differentiated with reduced fetal bovine serum (2%) and DMSO (1.25%) containing medium for 5 days before transfection. 48 hrs before experiments N1E-115 cells were co-transfected with 1 μg EB3-RFP or mCherry-Tau (3R) plasmid with or without 2 μg of plasmids, coding to GFP conjugated to full-length human ADNP, or ADNP carried mutations. 1:3 ratios between total amount of transfected DNA and transfection reagent were used according to manufacture guidance (Lipofectamine2000, Thermo Fisher Scientific, Waltham, MA, USA) in all subsequent experiments.
# Fluorescence recovery after photobleaching (FRAP)—Differentiated NIE-115 cells were transfected with mCherry-Tau with or without GFP-conjugated to full-length ADNP or mutated ADNP, and imaged 48 hrs after transfection. An ROI for photobleaching was drowned in the proximal cell branches. mCherry-Tau was bleached with a […], and fluorescence recovery was collected within wavelengths of 610-650 nm. 80 images were taken every 0.74 sec immediately after bleaching. After FRAP imaging all samples were also treated with NAP in final concentrations of 10^−12M, and after 4 hrs time-lapse imaging was done again under the same conditions. FRAP imaging for assessment difference between NAP and SKIP (SEQ ID NO: 21) activity was performed after an hour of ZnCl2 treatment (400 μM final concentration; Sigma, Rehovot, Israel) with or without NAP/SKIP (10^−12M final concentration). Fluorescence signals were quantified with Fiji, obtained data were normalized with easyFRAP [82, 83] and FRAP recovery curves were fitted by a one-phase exponential association function by GraphPad Prism6 (GraphPad Software, Inc., La Jolla, CA, USA) while samples with R^2<0.9 were excluded.
# Next, the effect of full-length/truncated ADNP forms with or without NAP treatment on Tau-MT interaction was examined by fluorescence recovery after photobleaching (FRAP) (FIGS. 8A-C). FRAP was performed with mCherry-tagged Tau protein (FIG. 8A). […] Therefore, the immobile mCherry-Tau fraction reflects the rate of Tau association with MTs.
# [2] = test system: mice with the ASD-linked InsG3680 mutation (SHANK3); test: Open field behavior in the SHANK3 mouse model; type: in vivo; settings: intranasal NAP once daily, five days a week for a month
# Description: To this end, mice with the ASD-linked InsG3680 mutation were used. Two behavioral assessments were performed on make mice: • 1) Open field behavior attesting to anxiety and depression (Open field behavioral assessment technology was previously described, e.g.); and • 2) Social recognition behavior, related to autistic traits (the social recognition test was previously described, e.g..
# This surprising finding is of importance as there is a psychiatric illness and regression in individuals with Phelan-McDermid syndrome.
# [3] = cited from earlier work
smiles,measurement,setting,value
"CC[C@H](C)[C@H](NC(=O)[C@H](CO)NC(=O)[C@@H](NC(=O)[C@@H]1CCCN1C(=O)[C@H](C)NC(=O)[C@@H](N)CC(N)=O)C(C)C)C(=O)N1CCC[C@H]1C(=O)N[C@@H](CCC(N)=O)C(=O)O [NAP, NAPVSIPQ]","spine density, motor cortex","Tyr-GFP mouse model; WT females, data not shown",no treatment effect was found on WT females
same,PSD95 volume in the hippocampus,Tyr-GFP mouse model; female Tyr mice,complete resolution upon NAP treatment
same,"mushroom spine density, motor cortex",Tyr-GFP mouse model; female Tyr mice,"NAP significantly affecting the larger, functionally stronger, mushroom shaped spines"
same,"increase in spine density, motor cortex L5 layer","Tyr-GFP mouse model; female Tyr mice, i.p. NAP, 9 days",~17%
same,"bacterial loads (EubV3, BIF, Lacto, Entero)",Tyr mice,no effect on WT mice
same,Tau-MT interaction (immobile mCherry-Tau fraction),"[1]; cells expressing ADNP p.Glu830synfs*83, NAP 10^−12M",significantly increased Tau-MT interaction
same,Tau-MT interaction (immobile mCherry-Tau fraction),"[1]; cells expressing ADNP p.Ser404*, NAP 10^−12M",significantly increased Tau-MT interaction
same,Tau immobile fraction (Tau-MT interaction) in the presence of zinc,"[1]; zinc 400 μM, 1 h, peptide 10^−12M",excessive impact of NAP on Tau-MT interaction
same,open field: cumulative duration in the center,[2],significantly increased by NAP treatment
same,bioavailability / cell penetration,[3],bioavailable by endocytosis
